Reference: PubChem BioAssay AID1996
Values after ≈ are worked out from the molar mass of the structure shown.

Details: buffer; pH 7.4; 200.0 µM

Row | SMILES | solubility kinetic [µg/mL]
1 | Cc1ccc(CN2CCCC(CO)(Cc3ccccc3C)C2)s1 (stereo not given) | 48.6 (≈ 147 µM)
2 | S=C(NCc1ccccc1)NC1CCSc2ccccc21 (stereo not given) | 1.2 (≈ 3.82 µM)
3 | C[C@H](NC(=O)c1cccc([N+](=O)[O-])c1)C(=O)OCC(=O)c1ccccc1Br | > 65.3
4 | COC(=O)c1ccc(NCC(=O)Nc2cc(C)cc(C)c2)cc1 | 5.4 (≈ 17.3 µM)
5 | O=C(NCCc1ccc(Cl)cc1)c1ccc2nc[nH]c2c1 | > 45
6 | COC(=O)COc1cccc2c(=O)n(CC(=O)N3CCC(C)CC3)ccc12 | > 55.9
7 | O=C(O)c1ccc(S(=O)(=O)N2CCOCC2)o1 | 33.9 (≈ 130 µM)
8 | COc1ccccc1NC(=S)N(C(C)C)C(C)c1ccccn1 (stereo not given) | 37.8 (≈ 115 µM)
9 | NC(=O)CN1C(=O)C(=O)N(Cc2ccccc2)C1=O | 38.7 (≈ 148 µM)
10 | O=C(Nc1ccc(Cl)c([N+](=O)[O-])c1)ONC1=NCCCCC1 | 42.4 (≈ 130 µM)
11 | O=C(O)CNC(=O)c1ccc(N2CCOCC2)cc1[N+](=O)[O-] | > 46.4
12 | O=c1onc(-c2ccc(Cl)cc2Cl)n1-c1cccnc1 | 19.5 (≈ 63.3 µM)
13 | CN(CCC(=O)Nc1ccc(Cl)cc1)Cc1ccccc1.Cl | > 50.9
14 | O=C(Nc1nccs1)OCc1ccccc1 | 12.8 (≈ 54.6 µM)
15 | Cc1ccc(-c2nc(C#N)c(NCCCn3ccnc3)o2)cc1 | 0.9 (≈ 2.93 µM)
16 | S=C(NCCc1ccccc1)N1CCOCC1 | > 37.6
17 | COc1ccc(NC(=O)CSCc2ccc([N+](=O)[O-])cc2)cc1OC | 50.1 (≈ 138 µM)
18 | CCCCN1C(=O)C(=O)N(CC(=O)Nc2ccccc2C(=O)OCC)C1=O | 55.1 (≈ 147 µM)
19 | CCn1c(/N=C/c2ccc(OC)cc2O)nc2ccccc21 | 15.6 (≈ 52.8 µM)
20 | CCCCCC(=O)Nc1ccc(S(=O)(=O)Nc2nccc(C)n2)cc1 | > 54.4

Row | SMILES | solubility kinetic [µg/mL]
21 | CN(CC(=O)Nc1cccc(F)c1)C(=O)CC1CCCC1 | > 43.9
22 | CC(=O)NCCc1c[nH]c2ccc(O)cc12 | > 32.7
23 | Cc1cc(C(=O)CN2C(=O)NC(CC(C)C)C2=O)c(C)n1C1CC1 (stereo not given) | 22.7 (≈ 68.5 µM)
24 | CCSc1ccccc1C(=O)Nc1ccc2c(c1)OCO2 | 13.8 (≈ 45.8 µM)
25 | Cc1ccc(S(=O)(=O)NCC(=O)OCCOc2ccc(Br)cc2)cc1 | 3.8 (≈ 8.87 µM)
26 | CCc1c(C)nc(N2CCN(c3cccc(OC)c3)CC2)[nH]c1=O | 15.8 (≈ 48.1 µM)
27 | COC(OC)C1Nc2ccccc2C(=O)N1c1ccc(F)cc1 (stereo not given) | > 47.4
28 | Cc1ccccc1OCC(=O)OCC(=O)c1ccc[nH]1 | > 41
29 | O=c1c2ccccc2nc2n1C(CSc1ccc(F)cc1)CS2 (stereo not given) | > 51.7
30 | Cc1ccc(-n2nc3c(c2NC(=O)C(C)(C)C)CS(=O)(=O)C3)cc1 | > 52.1
31 | COc1ccc2c(c1)CC/C2=N\OC(=O)c1ccccc1C | < 0.6
32 | S=C(Nc1cccnc1)N1CCN(c2ccccc2Cl)CC1 | 44.2 (≈ 133 µM)
33 | N#CCCC(CCC#N)C1=NCCc2ccccc21 | 36.4 (≈ 145 µM)
34 | O=C(CN1CCCCC1)N1CCc2ccccc21 | 36.6 (≈ 150 µM)
35 | COCCNC(=O)C(OC(=O)c1cccs1)c1ccc(F)cc1 (stereo not given) | > 50.6
36 | Fc1cccc(Nc2nc(Cl)nc(Cl)n2)c1 | 36.2 (≈ 140 µM)
37 | O=C(NCCCc1ccccc1)N1CCOCC1 | > 37.2
38 | CSc1nc2sc3c(c2c(=O)[nH]1)CC(C)(C)OC3 | 13.9 (≈ 49.2 µM)
39 | CC12CC3(C)CC(C)(C1)CC(C(=O)NCc1cccnc1)(C2)C3 | > 46.9
40 | CCOC(=O)c1ccc(N2C(=O)C3CCCN3C2=S)cc1 (stereo not given) | 41 (≈ 135 µM)

Row | SMILES | solubility kinetic [µg/mL]
41 | CCOc1ccccc1NC(=S)NCCc1ccc(F)cc1 | 25.4 (≈ 79.8 µM)
42 | Cc1cccn2cc(CCNC(=O)Cc3cccs3)nc12 | > 44.9
43 | COC(=O)c1ccc(CN2CCc3ccccc32)cc1 | 1 (≈ 3.74 µM)
44 | O=C(O)CN1CCN(Cc2ccc(F)cc2)C1=O | > 37.8
45 | COc1ccc(C(=O)Nc2cccc3c2CCCC3)c(OC)c1 | < 0.7
46 | CCOc1ccc(NC(=O)CN(C)C(=O)C2COc3ccccc3O2)cc1OCC (stereo not given) | > 62.2
47 | O=C(CC(Nc1ccccc1)c1ccccc1)C1CC1 (stereo not given) | < 0.6
48 | Cc1cccc(OCCSc2nc(N)cc(N)n2)c1 | > 41.5
49 | CC1CN(C(=O)COC(=O)c2cc3ccccc3cc2O)CC(C)O1 (stereo not given) | 12.7 (≈ 37 µM)
50 | OC(CNCCc1c[nH]c2ccccc12)c1ccccc1 (stereo not given) | 37 (≈ 132 µM)
51 | CC(C)(C)C(=O)Nc1cc2c3c(c1)CCN3C(=O)CC2 | > 40.9
52 | COC(=O)Cc1c(O)ccn(Cc2ccc3c(c2)OCO3)c1=O | > 47.6
53 | COc1ccc(Cl)cc1NC(=O)NCc1cccnc1 | > 43.8
54 | CCN(CC)CC(=O)N1c2ccccc2Sc2ccccc21 | > 46.9
55 | Cc1cc(NC(=O)Cn2c(=O)oc3ccc(Cl)cc32)no1 | 1.5 (≈ 4.87 µM)
56 | Cc1sc2nc(COC(=O)c3c(F)cccc3F)[nH]c(=O)c2c1C | 4.2 (≈ 12 µM)
57 | Cc1ccc(-c2csc(NC(=O)Cc3ccc(F)cc3)n2)o1 | 12.5 (≈ 39.5 µM)
58 | O=C(Nc1ccccc1Cl)C1CC(=O)N(c2ccccc2)C1 (stereo not given) | 33.4 (≈ 106 µM)
59 | CCOc1ccccc1NC(=O)N1CCCc2ccccc21 | < 0.3
60 | O=C(Nc1ccccc1Cl)c1sccc1-c1ccccc1 | < 0.7
